# Measurements published in patent US6001852A (priority 1996, dated 1999).
# Tests used:
# [1] = system: zinc precipitated Aβ; test: Washing of zinc-aggregated synthetic Aβ on nylon membrane (anti Aβ mAb 6E10, ECL-film); assay type: biochemical; conditions: 2 μM in TBS, 200 μl wash; 10 ng Aβ aggregated with 25 μM ZnCl; 100% for TBS alone
# Experimental: Samples of 10 ng synthetic Aβ were placed in microtitre wells and caused to aggregate by the addition of 25 μM ZnCl. The aggregates were then transferred to a 0.2 μm nylon membrane by filtration. […] The membrane was fixed, probed with the anti Aβ monoclonal antibody 6E10 and developed for exposure to ECL-film. The transmittance of the ECL-film was measured and the relative signal strength calculated based on 100% for TBS alone.
# [2] = system: zinc-aggregated Aβ; test: Resolubilization of zinc-aggregated Aβ in TBS pH 7.4; assay type: biochemical; conditions: clioquinol added after 30 μM zinc (43% in solution with zinc alone, 95% before zinc)
# Experimental: The ability of clioquinol to resolubilize zinc-aggregated Aβ was assessed. A […] solution of Aβ in TBS at a pH of 7.4 was prepared. 95% of the Aβ was maintained in a soluble state.
# [3] = system: Aβ; test: Solubilization of Aβ from Alzheimer's disease brain homogenates (Western blot, mAb W02); assay type: biochemical, human; conditions: frontal lobe neocortex homogenized in clioquinol/PBS at 100%, 10% and 1% (100%=800 nM)
# Experimental: Brain specimens were obtained for which a histopathological diagnosis of Alzheimer's disease was confirmed.
# The homogenates were centrifuged at 150,000 xg for thirty minutes and the supernatants collected and held on ice (fraction "S"). The pellets were subjected to an identical homogenization and centrifugation regime and the resulting supernatants again collected (fraction "P")
# 1 ml of each supernatant was treated with 200 μl of ice cold 10% TCA to precipitate total protein including Aβ. The resulting pellet was washed once with 100% ethanol and resuspended in 100 μl of TBS (tris 20 mM, NaCl 150 mM, pH 7.4).
# 7.5 μl of sample (S or P) was boiled for 5 min. with an equal volume of tris-tricine sample buffer containing 4% SDS and loaded onto a Novex pre-cast 10-20% tris-tricine gel followed by Western transfer onto nitrocellulose. […] The sensitivity of the detection system is 5-10 pg.
# To validate the TCA precipitation for Aβ 1 μg of synthetic Aβ 1-40 was added to 1 ml of PBS containing 10% BSA and the solution was treated as above.
# [4] = Dissolution of clioquinol in n-decane and extraction into PBS pH 7.4; assay type: physicochemical
# Experimental: The resolubilization of amyloid aggregates by clioquinol was studied. […] The undissolved aterial was allowed to settle. […] 100 ml of the (light yellow) supernatant was agitated together with 100 ml of PBS pH 7.4 and the phases allowed to separate. The PBS (lower phase) was collected and filtered to remove the residue which formed at the phase interface upon extraction with the organic solvent.
# [5] = 1H NMR study of the interaction of vitamin B12 with clioquinol glucuronide; assay type: binding; conditions: 2.6 mM vitamin B12 and 10 mM clioquinol glucuronide, buffered water pH 6.5, 20° C.
# Experimental: Three different solutions were prepared and their ^1 H NMR spectra were recorded in a DRX 400 MHz spectrophotometer at 20° C. Solution a) contained free vitamin B12 (hydroxycobalamin) in a concentration of 2.6 mM.
# In FIG. 1 the spectra of the three solutions are presented for the aromatic region (5.5-9.8 ppm). The differences are quite small but obvious in the expansion shown of FIG. 2 and FIG. 3, respectively.
compound,measurement,setting,value
O=C(O)CN(CCN(CC(=O)O)CC(=O)O)CC(=O)O [EDTA],Relative signal strength (Aβ remaining on membrane),[1],66%
"Oc1c(I)cc(Cl)c2cccnc12 [clioquinol, 5-chloro-7-iodo-8 hydroxyquinoline]",Soluble Aβ,[2],70%
same,Solubilization of Aβ,[3],effective in promoting the solubilization of Aβ
same,Share of clioquinol dissolved in n-decane,[4]; 5.3 g suspended in 200 ml n-decane,2%
same,Concentration of clioquinol in the PBS,"[4]; PBS pH 7.4 extract of decane supernatant, 1:1, assuming 2% dissolved and partitioning coefficient 1/1750",800 nM
"COC(=O)[C@H]1OC(Oc2c(I)cc(Cl)c3cccnc23)[C@H](OC(C)=O)[C@@H](OC(C)=O)[C@@H]1OC(C)=O (stereo partly drawn) [methyl (5-chloro-7-iodo-quinolyl-2',3',4'-tri-o-acetyl-glucopyranosid)uronate]",Interaction with vitamin B12 (shifted 1H NMR resonances),[5],interaction between clioquinol glucuronide and vitamin B12
